The target in this experiment is Recombinant chicken cardiac troponin C (cTnC) (Gallus gallus, UniProt P09860). In words: intrinsic tyrosine fluorescence quenching titration, hyperbolic plus linear fit. Type of experiment: binding.

For one molecule, Kd results are on record in PMC3637861 (Journal of muscle research and cell motility, 2013).

Structures are written as SMILES.

For orientation: Kd means the concentration at which binding is half-saturated. Consider `O=C(O[C@@H]1Cc2c(O)cc(O)cc2O[C@@H]1c1cc(O)c(O)c(O)c1)c1cc(O)c(O)c(O)c1` [EGCg], for which the Kd stood at 65 µM.
